Results on one compound are retold here after patent publication US6500624B1, “Kainate-binding, human CNS receptors of the EAA3 family” (NPS Allelix Corp., priority 1992, dated 2002).

The target of this experiment is T1, human EAA3a receptor (Homo sapiens, UniProt P39086).
T1 construct: To provide the entire coding region of the receptor; expressed in transfected cells; host or cells: COS-1 (monkey, ATCC CRL 1650), transient transfection with pcDNAIA/humEAA3a; membrane preparation
Kind of experiment: NMDA binding to membranes of EAA3a-producing COS cells. The conditions noted are these: EAA3a-producing COS cell membranes.

T1 sequence (P39086 31-905 isoform P39086-2 limits assumed): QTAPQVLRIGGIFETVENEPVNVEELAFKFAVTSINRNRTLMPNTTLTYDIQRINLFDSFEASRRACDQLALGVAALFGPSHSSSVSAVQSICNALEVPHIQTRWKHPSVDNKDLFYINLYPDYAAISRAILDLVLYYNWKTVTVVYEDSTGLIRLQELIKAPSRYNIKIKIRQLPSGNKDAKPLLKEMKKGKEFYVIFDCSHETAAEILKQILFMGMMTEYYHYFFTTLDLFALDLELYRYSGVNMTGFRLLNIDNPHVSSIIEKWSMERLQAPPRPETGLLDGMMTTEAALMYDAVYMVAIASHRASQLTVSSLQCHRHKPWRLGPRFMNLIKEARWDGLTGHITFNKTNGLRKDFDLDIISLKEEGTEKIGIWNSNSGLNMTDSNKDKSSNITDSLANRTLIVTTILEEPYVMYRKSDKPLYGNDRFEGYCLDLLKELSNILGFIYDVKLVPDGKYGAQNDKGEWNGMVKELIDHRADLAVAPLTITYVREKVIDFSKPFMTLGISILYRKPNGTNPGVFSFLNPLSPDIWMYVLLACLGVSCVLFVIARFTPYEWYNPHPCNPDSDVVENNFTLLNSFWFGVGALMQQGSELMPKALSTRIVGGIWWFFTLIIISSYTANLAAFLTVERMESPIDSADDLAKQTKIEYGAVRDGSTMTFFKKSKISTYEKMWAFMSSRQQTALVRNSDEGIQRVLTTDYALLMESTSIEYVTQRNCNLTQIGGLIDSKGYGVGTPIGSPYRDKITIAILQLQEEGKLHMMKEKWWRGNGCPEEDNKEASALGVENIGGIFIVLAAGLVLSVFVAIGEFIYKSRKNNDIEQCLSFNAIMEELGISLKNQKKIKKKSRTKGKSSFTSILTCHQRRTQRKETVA

Take `CN[C@H](CC(=O)O)C(=O)O` [NMDA, N-methyl-D-aspartate]: the “binding of NMDA” value is “little or no demonstrable binding”.
